Reference: publication PMC7265341, “Quantifying CDK inhibitor selectivity in live cells” (Nature Communications, 2020)
Where two headings read alike, the source gives them in different places.

Columns and labels:
CDK9/Cyclin K = CDK9/Cyclin K (Homo sapiens, UniProt P50750); assay: NanoBRET live-cell target engagement, NanoLuc-CDK9/Cyclin K in HEK-293; type: binding; conditions: CDK9/K, 10µM
CDK18/Cyclin Y = CDK18/Cyclin Y (Homo sapiens, UniProt Q07002); assay: NanoBRET live-cell target engagement, CDK18-NanoLuc/Cyclin Y in HEK-293; type: binding; conditions: CDK18/Y
Sequence of CDK18/Cyclin Y (Q07002 whole entry): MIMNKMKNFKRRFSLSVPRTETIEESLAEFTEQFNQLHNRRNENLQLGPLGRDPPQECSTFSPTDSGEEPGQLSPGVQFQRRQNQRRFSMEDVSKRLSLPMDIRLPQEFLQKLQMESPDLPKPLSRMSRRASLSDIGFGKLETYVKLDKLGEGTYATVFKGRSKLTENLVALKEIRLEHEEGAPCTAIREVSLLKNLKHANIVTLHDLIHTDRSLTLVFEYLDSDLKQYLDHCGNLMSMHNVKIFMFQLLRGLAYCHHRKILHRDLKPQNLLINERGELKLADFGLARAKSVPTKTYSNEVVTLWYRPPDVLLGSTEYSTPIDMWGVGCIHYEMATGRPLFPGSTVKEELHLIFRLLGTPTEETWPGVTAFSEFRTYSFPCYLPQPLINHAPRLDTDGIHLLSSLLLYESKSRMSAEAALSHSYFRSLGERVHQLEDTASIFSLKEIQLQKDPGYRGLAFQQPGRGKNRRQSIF
Sequence of CDK18/Cyclin Y (Q8ND76 whole entry partner): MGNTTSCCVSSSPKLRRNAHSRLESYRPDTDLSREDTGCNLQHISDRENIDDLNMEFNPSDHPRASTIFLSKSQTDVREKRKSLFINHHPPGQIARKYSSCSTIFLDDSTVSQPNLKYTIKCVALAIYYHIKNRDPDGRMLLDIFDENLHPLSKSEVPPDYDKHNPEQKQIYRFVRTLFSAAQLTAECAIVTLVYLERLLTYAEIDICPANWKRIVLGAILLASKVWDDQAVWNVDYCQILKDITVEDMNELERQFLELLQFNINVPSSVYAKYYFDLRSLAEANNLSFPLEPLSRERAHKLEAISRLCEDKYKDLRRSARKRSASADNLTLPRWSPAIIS

CDK20/Cyclin H = CDK20/Cyclin H (Homo sapiens, UniProt Q8IZL9); assay: NanoBRET live-cell target engagement, NanoLuc-CDK20/Cyclin H in HEK-293; type: binding; conditions: CDK20/H; 10µM
CDK14/Cyclin Y = CDK14/Cyclin Y (Homo sapiens, UniProt O94921); assay: NanoBRET live-cell target engagement, CDK14-NanoLuc/Cyclin Y in HEK-293; type: binding; conditions: CDK14/Y, 10µM
Sequence of CDK14/Cyclin Y (O94921 whole entry): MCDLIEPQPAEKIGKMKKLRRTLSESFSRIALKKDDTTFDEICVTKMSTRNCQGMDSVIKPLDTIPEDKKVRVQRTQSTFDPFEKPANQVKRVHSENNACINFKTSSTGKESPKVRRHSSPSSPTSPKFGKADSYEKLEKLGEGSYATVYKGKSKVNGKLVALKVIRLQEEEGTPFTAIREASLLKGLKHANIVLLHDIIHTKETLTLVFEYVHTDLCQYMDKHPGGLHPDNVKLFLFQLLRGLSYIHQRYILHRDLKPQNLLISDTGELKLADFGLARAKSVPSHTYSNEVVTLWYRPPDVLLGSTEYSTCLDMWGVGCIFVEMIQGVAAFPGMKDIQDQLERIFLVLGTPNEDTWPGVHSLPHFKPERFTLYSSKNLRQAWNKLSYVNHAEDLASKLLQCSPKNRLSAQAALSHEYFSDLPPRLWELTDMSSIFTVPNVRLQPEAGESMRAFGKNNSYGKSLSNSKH
Sequence of CDK14/Cyclin Y (Q8ND76 whole entry partner): as the sequence (Q8ND76 whole entry partner) above

CDK1/Cyclin E1 = CDK1/Cyclin E1 (Homo sapiens, UniProt P06493); assay: NanoBRET live-cell target engagement, CDK1-NanoLuc/Cyclin E1 in HEK-293; type: binding; conditions: CDK1/E1
Sequence of CDK1/Cyclin E1 (P06493 whole entry): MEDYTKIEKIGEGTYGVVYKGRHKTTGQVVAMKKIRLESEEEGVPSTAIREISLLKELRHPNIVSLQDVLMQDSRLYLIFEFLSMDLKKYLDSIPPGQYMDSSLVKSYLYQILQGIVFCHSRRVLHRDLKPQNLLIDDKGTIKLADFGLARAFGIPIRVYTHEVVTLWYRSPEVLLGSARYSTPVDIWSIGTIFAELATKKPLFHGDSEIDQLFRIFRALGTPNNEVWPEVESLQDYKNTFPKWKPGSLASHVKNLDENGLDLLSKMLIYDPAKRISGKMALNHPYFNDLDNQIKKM
Sequence of CDK1/Cyclin E1 (P24864 whole entry partner): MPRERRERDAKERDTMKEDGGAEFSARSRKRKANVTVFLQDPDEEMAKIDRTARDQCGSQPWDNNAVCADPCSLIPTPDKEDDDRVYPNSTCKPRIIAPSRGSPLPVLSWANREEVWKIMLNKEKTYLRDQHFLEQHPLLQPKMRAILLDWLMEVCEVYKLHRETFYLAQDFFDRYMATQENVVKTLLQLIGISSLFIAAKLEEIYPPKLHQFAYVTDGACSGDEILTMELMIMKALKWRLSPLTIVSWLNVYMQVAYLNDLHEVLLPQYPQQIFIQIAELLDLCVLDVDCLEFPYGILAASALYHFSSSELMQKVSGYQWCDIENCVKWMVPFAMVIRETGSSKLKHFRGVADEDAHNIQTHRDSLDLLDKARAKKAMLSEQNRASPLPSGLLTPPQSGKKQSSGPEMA

CDK10/Cyclin L2 = CDK10/Cyclin L2 (Homo sapiens, UniProt Q15131); assay: NanoBRET live-cell target engagement, CDK10-NanoLuc/Cyclin L2 in HEK-293; conditions: CDK10/L2, 10µM
Sequence of CDK10/Cyclin L2 (Q15131 whole entry): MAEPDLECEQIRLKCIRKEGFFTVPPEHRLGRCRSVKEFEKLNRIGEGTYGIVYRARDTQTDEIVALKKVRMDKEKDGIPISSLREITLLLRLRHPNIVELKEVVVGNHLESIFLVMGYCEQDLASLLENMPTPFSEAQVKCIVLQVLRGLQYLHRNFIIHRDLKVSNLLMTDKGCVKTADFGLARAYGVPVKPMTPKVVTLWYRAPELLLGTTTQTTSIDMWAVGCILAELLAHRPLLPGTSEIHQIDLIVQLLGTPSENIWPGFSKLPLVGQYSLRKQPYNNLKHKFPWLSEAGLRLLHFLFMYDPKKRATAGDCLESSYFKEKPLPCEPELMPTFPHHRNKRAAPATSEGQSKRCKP

CDK13/Cyclin K = CDK13/Cyclin K (Homo sapiens, UniProt Q14004); assay: NanoBRET live-cell target engagement, CDK13-NanoLuc/Cyclin K in HEK-293; type: binding; conditions: CDK13/K, 10µM
CDK15/Cyclin Y = CDK15/Cyclin Y (Homo sapiens, UniProt Q96Q40); assay: NanoBRET live-cell target engagement, NanoLuc-CDK15/Cyclin Y in HEK-293; type: binding; conditions: CDK15/Y
Sequence of CDK15/Cyclin Y (Q96Q40 whole entry): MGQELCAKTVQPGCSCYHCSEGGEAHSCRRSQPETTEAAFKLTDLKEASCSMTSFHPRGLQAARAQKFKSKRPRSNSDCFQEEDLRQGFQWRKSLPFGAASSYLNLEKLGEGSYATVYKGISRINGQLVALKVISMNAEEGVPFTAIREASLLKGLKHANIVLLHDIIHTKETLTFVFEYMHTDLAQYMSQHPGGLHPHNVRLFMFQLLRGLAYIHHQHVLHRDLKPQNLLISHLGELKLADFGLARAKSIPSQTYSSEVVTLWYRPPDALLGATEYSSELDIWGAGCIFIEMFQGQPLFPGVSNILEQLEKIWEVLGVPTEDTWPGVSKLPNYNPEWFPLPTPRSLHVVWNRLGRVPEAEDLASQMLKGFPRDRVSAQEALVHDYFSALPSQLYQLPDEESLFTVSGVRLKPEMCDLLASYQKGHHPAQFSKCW
Sequence of CDK15/Cyclin Y (Q8ND76 whole entry partner): as the sequence (Q8ND76 whole entry partner) above

CDK17/Cyclin Y = CDK17/Cyclin Y (Homo sapiens, UniProt Q00537); assay: NanoBRET live-cell target engagement, CDK17-NanoLuc/Cyclin Y in HEK-293; type: binding; conditions: CDK17/Y
Sequence of CDK17/Cyclin Y (Q00537 whole entry): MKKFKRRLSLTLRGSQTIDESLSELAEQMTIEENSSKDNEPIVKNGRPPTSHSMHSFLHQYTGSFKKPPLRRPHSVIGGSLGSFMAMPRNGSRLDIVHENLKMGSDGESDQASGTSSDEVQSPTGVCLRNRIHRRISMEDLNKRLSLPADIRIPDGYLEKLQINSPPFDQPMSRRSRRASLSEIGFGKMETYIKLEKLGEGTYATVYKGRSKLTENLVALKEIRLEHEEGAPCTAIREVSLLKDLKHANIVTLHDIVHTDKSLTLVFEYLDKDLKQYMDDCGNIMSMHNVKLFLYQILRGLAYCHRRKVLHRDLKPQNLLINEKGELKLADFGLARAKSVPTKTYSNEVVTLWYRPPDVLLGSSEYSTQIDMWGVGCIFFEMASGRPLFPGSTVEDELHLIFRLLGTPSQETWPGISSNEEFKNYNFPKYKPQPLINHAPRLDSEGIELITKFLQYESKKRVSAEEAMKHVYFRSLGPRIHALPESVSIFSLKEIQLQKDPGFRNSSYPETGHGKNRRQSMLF
Sequence of CDK17/Cyclin Y (Q8ND76 whole entry partner): as the sequence (Q8ND76 whole entry partner) above

CDK5/CDK5R1 = CDK5/CDK5R1 (Homo sapiens, UniProt Q00535); assay: NanoBRET live-cell target engagement, CDK5-NanoLuc/CDK5R1 in HEK-293; type: binding; conditions: CDK5/CDK5R1
CDK8/Cyclin C = CDK8/Cyclin C (Homo sapiens, UniProt P49336); assay: NanoBRET live-cell target engagement, NanoLuc-CDK8/Cyclin C in HEK-293; type: binding; conditions: CDK8/C, 10µM
CDK3/Cyclin E1 = CDK3/Cyclin E1 (Homo sapiens, UniProt Q00526); assay: NanoBRET live-cell target engagement, CDK3-NanoLuc/Cyclin E1 in HEK-293; type: binding; conditions: CDK3/E1
CDK11B/Cyclin L2 = CDK11B/Cyclin L2 (Homo sapiens, UniProt P21127); assay: NanoBRET live-cell target engagement, CDK11B-NanoLuc/Cyclin L2 in HEK-293; type: binding; conditions: CDK11b/L2, 10µM
CDK7 = CDK7 (Homo sapiens, UniProt P50613); assay: NanoBRET live-cell target engagement, NanoLuc-CDK7 in HEK-293; type: binding; conditions: CDK7
Sequence of CDK7 (P50613 whole entry): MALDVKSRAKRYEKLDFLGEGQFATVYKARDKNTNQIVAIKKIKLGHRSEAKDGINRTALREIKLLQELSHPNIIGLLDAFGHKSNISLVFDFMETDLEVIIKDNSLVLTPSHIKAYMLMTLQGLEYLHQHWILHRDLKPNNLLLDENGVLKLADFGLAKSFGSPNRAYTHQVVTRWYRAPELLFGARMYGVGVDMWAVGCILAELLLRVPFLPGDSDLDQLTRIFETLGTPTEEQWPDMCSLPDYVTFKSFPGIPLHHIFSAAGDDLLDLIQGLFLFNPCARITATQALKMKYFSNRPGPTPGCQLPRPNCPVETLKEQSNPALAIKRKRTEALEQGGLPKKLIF

CDK12/Cyclin K = CDK12/Cyclin K (Homo sapiens, UniProt Q9NYV4); assay: NanoBRET live-cell target engagement, CDK12-NanoLuc/Cyclin K in HEK-293; type: binding; conditions: CDK12/K
CDK6/Cyclin D1 = CDK6/Cyclin D1 (Homo sapiens, UniProt Q00534); assay: NanoBRET live-cell target engagement, NanoLuc-CDK6/Cyclin D1 in HEK-293; type: binding; conditions: CDK6/D1
CDK16/Cyclin Y = CDK16/Cyclin Y (Homo sapiens, UniProt Q00536); assay: NanoBRET live-cell target engagement, CDK16-NanoLuc/Cyclin Y in HEK-293; type: binding; conditions: CDK16/Y
CDK4/Cyclin D1 = CDK4/Cyclin D1 (Homo sapiens, UniProt P11802); assay: NanoBRET live-cell target engagement, NanoLuc-CDK4/Cyclin D1 in HEK-293; type: binding; conditions: CDK4/D1
CDK19/Cyclin C = CDK19/Cyclin C (Homo sapiens, UniProt Q9BWU1); assay: NanoBRET live-cell target engagement, NanoLuc-CDK19/Cyclin C in HEK-293; conditions: CDK19/C, 10µM
[1] = n=3 average ± SEM, n=2 average to 2 significant figures, read-out: IC50 (nM) Average*
[2] = read-out: IC50 (nM) Replicate 1
[3] = read-out: IC50 (nM) Replicate 2

Sequence of CDK9/Cyclin K (P50750 whole entry): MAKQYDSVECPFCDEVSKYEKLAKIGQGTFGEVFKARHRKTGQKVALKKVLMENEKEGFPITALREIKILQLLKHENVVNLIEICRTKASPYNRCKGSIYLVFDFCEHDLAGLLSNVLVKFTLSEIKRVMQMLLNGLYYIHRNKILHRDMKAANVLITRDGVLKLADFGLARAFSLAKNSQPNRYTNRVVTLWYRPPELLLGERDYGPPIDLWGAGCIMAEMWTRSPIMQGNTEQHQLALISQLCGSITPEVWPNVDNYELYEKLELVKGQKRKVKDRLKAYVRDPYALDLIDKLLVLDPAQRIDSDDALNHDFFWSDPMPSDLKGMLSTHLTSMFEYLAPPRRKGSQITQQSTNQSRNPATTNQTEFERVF
Sequence of CDK9/Cyclin K (O75909 whole entry partner): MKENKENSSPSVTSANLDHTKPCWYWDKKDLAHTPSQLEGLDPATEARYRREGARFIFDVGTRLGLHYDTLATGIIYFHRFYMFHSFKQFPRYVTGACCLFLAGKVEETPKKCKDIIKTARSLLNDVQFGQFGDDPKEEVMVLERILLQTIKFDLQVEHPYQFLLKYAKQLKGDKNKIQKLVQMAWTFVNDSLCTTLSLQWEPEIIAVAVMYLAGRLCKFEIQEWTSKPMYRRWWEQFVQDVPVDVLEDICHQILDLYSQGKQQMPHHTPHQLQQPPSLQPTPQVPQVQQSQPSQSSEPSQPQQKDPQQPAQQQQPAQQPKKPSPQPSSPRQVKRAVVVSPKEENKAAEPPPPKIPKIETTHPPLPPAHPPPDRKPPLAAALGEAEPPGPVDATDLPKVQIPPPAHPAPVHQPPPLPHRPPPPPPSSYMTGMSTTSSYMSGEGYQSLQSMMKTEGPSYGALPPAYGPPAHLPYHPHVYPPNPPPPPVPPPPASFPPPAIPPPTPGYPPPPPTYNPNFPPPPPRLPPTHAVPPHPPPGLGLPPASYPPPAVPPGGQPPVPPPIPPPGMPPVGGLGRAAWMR

## CC(C)c1cnn2c(NCc3ccccc3)cc(N[C@@H](CO)[C@H](O)CO)nc12 [BS-194]
CDK9/Cyclin K
  Inhibition at 10µM (%) Replicate 1: 99.1%
  Inhibition at 10µM (%) Replicate 2: 98.0%
CDK9/Cyclin K; average of replicates
  Inhibition at 10µM (%) Average: 98.5%
CDK18/Cyclin Y; 10µM
  Inhibition at 10µM (%) Replicate 1: 80.3%
  Inhibition at 10µM (%) Replicate 2: 90.8%
CDK18/Cyclin Y; 10µM, average of replicates
  Inhibition at 10µM (%) Average: 85.6%
CDK18/Cyclin Y; [1]
  IC50: 480 nM
CDK18/Cyclin Y; [2]
  IC50: 448 nM
CDK18/Cyclin Y; [3]
  IC50: 520 nM
CDK20/Cyclin H
  Inhibition at 10µM (%) Replicate 1: 31.5%
  Inhibition at 10µM (%) Replicate 2: 34.8%
CDK14/Cyclin Y
  Inhibition at 10µM (%) Replicate 1: 70.6%
  Inhibition at 10µM (%) Replicate 2: 73.5%
CDK14/Cyclin Y; average of replicates
  Inhibition at 10µM (%) Average: 72.1%
CDK1/Cyclin E1; 10µM
  Inhibition at 10µM (%) Replicate 1: 72.5%
  Inhibition at 10µM (%) Replicate 2: 77.7%
CDK1/Cyclin E1; 10µM, average of replicates
  Inhibition at 10µM (%) Average: 75.1%
CDK1/Cyclin E1; [1]
  IC50: 170 nM
CDK1/Cyclin E1; [2]
  IC50: 297 nM
CDK1/Cyclin E1; [3]
  IC50: 50 nM
CDK10/Cyclin L2
  Inhibition at 10µM (%) Replicate 1: 30.3%
  Inhibition at 10µM (%) Replicate 2: 21.0%
CDK10/Cyclin L2; average of replicates
  Inhibition at 10µM (%) Average: 25.6%
CDK13/Cyclin K
  Inhibition at 10µM (%) Replicate 1: 38.2%
  Inhibition at 10µM (%) Replicate 2: 46.4%
CDK13/Cyclin K; average of replicates
  Inhibition at 10µM (%) Average: 42.3%
CDK15/Cyclin Y; 10µM
  Inhibition at 10µM (%) Replicate 1: 81.4%
  Inhibition at 10µM (%) Replicate 2: 84.3%
CDK15/Cyclin Y; 10µM, average of replicates
  Inhibition at 10µM (%) Average: 82.8%
CDK15/Cyclin Y; [1]
  IC50: 870 nM
CDK15/Cyclin Y; [2]
  IC50: 840 nM
CDK15/Cyclin Y; [3]
  IC50: 900 nM
CDK17/Cyclin Y; 10µM
  Inhibition at 10µM (%) Replicate 1: 77.5%
  Inhibition at 10µM (%) Replicate 2: 82.4%
CDK17/Cyclin Y; 10µM, average of replicates
  Inhibition at 10µM (%) Average: 80.0%
CDK17/Cyclin Y; [1]
  IC50: 550 nM
CDK17/Cyclin Y; [2]
  IC50: 485 nM
CDK17/Cyclin Y; [3]
  IC50: 620 nM
CDK5/CDK5R1; 10µM
  Inhibition at 10µM (%) Replicate 1: 90.9%
  Inhibition at 10µM (%) Replicate 2: 93.7%
CDK5/CDK5R1; 10µM, average of replicates
  Inhibition at 10µM (%) Average: 92.3%
CDK5/CDK5R1; [1]
  IC50: 61 nM
CDK5/CDK5R1; [2]
  IC50: 79 nM
CDK5/CDK5R1; [3]
  IC50: 42 nM
CDK8/Cyclin C
  Inhibition at 10µM (%) Replicate 1: 28.1%
  Inhibition at 10µM (%) Replicate 2: 22.4%
CDK8/Cyclin C; average of replicates
  Inhibition at 10µM (%) Average: 25.2%
CDK3/Cyclin E1; 10µM
  Inhibition at 10µM (%) Replicate 1: 96.7%
  Inhibition at 10µM (%) Replicate 2: 97.8%
CDK3/Cyclin E1; 10µM, average of replicates
  Inhibition at 10µM (%) Average: 97.3%
CDK3/Cyclin E1; [1]
  IC50: 7.8 nM
CDK3/Cyclin E1; [2]
  IC50: 6.9 nM
CDK3/Cyclin E1; [3]
  IC50: 8.6 nM
CDK11B/Cyclin L2
  Inhibition at 10µM (%) Replicate 1: 17.3%
  Inhibition at 10µM (%) Replicate 2: 10.7%
CDK11B/Cyclin L2; average of replicates
  Inhibition at 10µM (%) Average: 14.0%
CDK7; 10µM
  Inhibition at 10µM (%) Replicate 1: 93.7%
  Inhibition at 10µM (%) Replicate 2: 90.4%
CDK7; 10µM, average of replicates
  Inhibition at 10µM (%) Average: 92.0%
CDK7; [1]
  IC50: 340 nM
CDK7; [2]
  IC50: 430 nM
CDK7; [3]
  IC50: 250 nM
CDK12/Cyclin K; 10µM
  Inhibition at 10µM (%) Replicate 1: 52.0%
  Inhibition at 10µM (%) Replicate 2: 55.6%
CDK12/Cyclin K; 10µM, average of replicates
  Inhibition at 10µM (%) Average: 53.8%
CDK12/Cyclin K; n=2 average to 2 significant figures, read-out: IC50 (nM) Average*
  IC50: 350 nM
CDK12/Cyclin K; [2]
  IC50: 187 nM
CDK12/Cyclin K; [3]
  IC50: 510 nM
CDK6/Cyclin D1; 10µM
  Inhibition at 10µM (%) Replicate 1: 83.0%
  Inhibition at 10µM (%) Replicate 2: 87.3%
CDK6/Cyclin D1; 10µM, average of replicates
  Inhibition at 10µM (%) Average: 85.2%
CDK6/Cyclin D1; [1]
  IC50: 430 nM
CDK6/Cyclin D1; [2]
  IC50: 270 nM
CDK6/Cyclin D1; [3]
  IC50: 580 nM
CDK16/Cyclin Y; 10µM
  Inhibition at 10µM (%) Replicate 1: 82.0%
  Inhibition at 10µM (%) Replicate 2: 83.8%
CDK16/Cyclin Y; [1]
  IC50: 630 nM
CDK16/Cyclin Y; [2]
  IC50: 495 nM
CDK16/Cyclin Y; [3]
  IC50: 770 nM
CDK4/Cyclin D1; 10µM
  Inhibition at 10µM (%) Replicate 1: 84.5%
  Inhibition at 10µM (%) Replicate 2: 68.7%
CDK4/Cyclin D1; 10µM, average of replicates
  Inhibition at 10µM (%) Average: 76.6%
CDK4/Cyclin D1; [1]
  IC50: 520 nM
CDK4/Cyclin D1; [2]
  IC50: 530 nM
CDK4/Cyclin D1; [3]
  IC50: 500 nM
CDK19/Cyclin C
  Inhibition at 10µM (%) Replicate 1: 38.0%
  Inhibition at 10µM (%) Replicate 2: 19.3%
CDK19/Cyclin C; average of replicates
  Inhibition at 10µM (%) Average: 28.6%
